Patent publication US4824955A, “Selenium oxy chloride-pyridine or bipyridine complexes” (Nippon Kayaku Kabushiki Kaisha, priority 1985, dated 1989)
Values joined by “and” are separate entries in the source; they are usually repeats but may differ in a detail not shown here. Equal values may be shown once. Read-outs that look alike come from different tables or passages of the source.

Experiments:
Enrlich carcinoma = experiment: Antineoplastic activity against Enrlich carcinoma (life prolongation rate); type: in vivo, 5-week-old ICR mice (male); details: for response vs control in vivo at 16 mg/kg: Mus musculus, ip, 1440 h, read-out: Life prolongation rate (T/C %)
Procedure: Approximately 10^6 cells/0.2 ml of Enrlich carcinoma were inoculated into the abdominal cavity of each of the 5-week-old ICR mice (male) used for the test, and the test compounds were administered intraperitoneally to the mice of the treated group once a day for a period of 7 days, starting from the day after said inoculation. The mice of the control group was administered with a saline solution in the same way. Observation of the animals of both groups was continued for 60 days after the administration, and the life prolongation rate (T/C%, T/C×100) was determined from the average duration (days) of life of the mice of the treated group (T) and that of the mice of the control group (C).

[1] = intraperitoneal, once a day, 7 days, mice
in vivo = details: mouse, ip, LD50, intraperitoneal, once a day, 7 days, mice
[2] = tested on: Salmonella typhimurium TA-98; experiment: Antimutagenic activity, Ames method, against mutagenic action of benzpyrene; type: cell-based; details: with B(α)P and S-9 mix
Procedure: The antimutagenic activity was examined according to the Ames method by using Salmonella typhimurium TA-98 as test bacterium and Benzo(α)pyrene (B(α)P) as (TA-98) mutagen.
To a solution of 5 μg of B(α)P and a proper amount of a compound of this invention in 0.1 ml of DMSO were added 0.5 ml of S-9 mix and 0.1 ml of a TA-98 suspension, and the mixture was subjected to preincubation at 37° C. for 20 minutes.
This preincubated mixture was further added with 2 ml of soft agar, and after sufficient mixing, the mixture was uniformly spread on a gluclose minimum agar medium plate and incubated at 37° C. for 48 hours. Thereafter, the number of the colonies produced by reverse mutation was counted.
The number of the colonies existing in the medium containing neither B(α)P nor the compound of this invention was given as background.
The antimutagenic activity was determined as a mutation inhibition rate from the following formula: [formula]

[3] = 2.0 mg/kg/day, intraperitoneal, once a day, 7 days
[4] = 4.0 mg/kg/day, intraperitoneal, once a day, 7 days
[5] = 8.0 mg/kg/day, intraperitoneal, once a day, 7 days

SMILES: Cn1cnc2ccccc21 [Compound 1-40, Selenium oxychloride-N-methylbenzimidazole (1:1) complex]
- Life prolongation rate (T/C %) (Enrlich carcinoma; [3]): 214%
- Life prolongation rate (T/C %) (Enrlich carcinoma; [4]): 230%
- Life prolongation rate (T/C %) (Enrlich carcinoma; [5]): 243%
- response vs control in vivo at 16 mg/kg (Enrlich carcinoma; intraperitoneal, (Note 2) administered for 2 days): 123%
- LD50 [1]: 8-16 mg/kg/day × 7

SMILES: c1ccc(-c2ccccn2)nc1 [Compound 1-41, Selenium oxychloride-2,2'-dipyridyl (1:1) complex]
- LD50 (in vivo): 8 to 16 mg/kg
- Life prolongation rate (T/C %) (Enrlich carcinoma; [3]): 230%
- Life prolongation rate (T/C %) (Enrlich carcinoma; [4]): 237%
- Life prolongation rate (T/C %) (Enrlich carcinoma; [5]): 312%
- Inhibition rate (mutation inhibition rate) ([2]; 0.5 μg/plate): 22.6
- Number of colonies ([2]; 0.5 μg/plate): 238
- Inhibition rate (mutation inhibition rate) ([2]; 1 μg/plate): 24.2
- Number of colonies ([2]; 1 μg/plate): 234
- Inhibition rate (mutation inhibition rate) ([2]; 5 μg/plate): 33.6
- Number of colonies ([2]; 5 μg/plate): 209
- Inhibition rate (mutation inhibition rate) ([2]; 10 μg/plate): 56.2
- Number of colonies ([2]; 10 μg/plate): 149
- Inhibition rate (mutation inhibition rate) ([2]; 50 μg/plate): 67.5
- Number of colonies ([2]; 50 μg/plate): 119
- Inhibition rate (mutation inhibition rate) ([2]; 100 μg/plate): 76.2
- Number of colonies ([2]; 100 μg/plate): 96
- Inhibition rate (mutation inhibition rate) ([2]; 500 μg/plate): 100
- Number of colonies ([2]; 500 μg/plate): 16

SMILES: c1ccncc1 [Compound 2-1, Tetrabromoselenium-pyridine (1:2) complex]
- Life prolongation rate (T/C %) (Enrlich carcinoma; mouse, in vivo): 185% and 171% and 222% and 146%
- LD50 [1]: > 16 mg/kg/day × 7

SMILES: c1ccc(-c2ccccn2)nc1 [Compound 2-13, Tetrachloroselenium-2,2'-dipyridinyl (1:2) complex]
- Life prolongation rate (T/C %) (Enrlich carcinoma; [3]): 152%
- Life prolongation rate (T/C %) (Enrlich carcinoma; [4]): 180%
- Life prolongation rate (T/C %) (Enrlich carcinoma; [5]): 185%
- response vs control in vivo at 16 mg/kg (Enrlich carcinoma; intraperitoneal, (Note 5) administered for 6 days): 97%
- LD50 [1]: > 16 mg/kg/day × 7
